Measurements: PMC5515969, “Effects of 31 FDA approved small-molecule kinase inhibitors on isolated rat liver mitochondria” (Archives of Toxicology, 2016)
Where two headings read alike, the source gives them in different places.

Experiments:
[1] = tested on: isolated rat liver mitochondria; experiment: Mitochondrial oxygen consumption (glutamate/malate or succinate driven, state 4 and state 3); type: biochemical; conditions: DMSO treated samples set as 1; for State 3 respiration driven by succinate at 10XCmax: key: 0 indicates that the drug had no effects (negative); for State 3 respiration driven by succinate at 1XCmax: key: 0 indicates that the drug had no effects (negative)
In short: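 Rat liver mitochondria (1 mg/ml protein) exposed 5 min to kinase inhibitors in 0.1% DMSO, then O2 consumption measured by Clark-type electrode with glutamate/malate or succinate (state 4), ADP added after 3 min (state 3). Rates normalized to 0.1% DMSO controls set to 1.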

[2] = tested on: RCC I; experiment: RCC I activity in submitochondrial particles; type: biochemical, rat; parameters: key to RCC I at 10XCmax / RCC I at 100XCmax / RCC I at 50XCmax / RCC I at 30XCmax / RCC I at 20XCmax: activity relative to DMSO-treated controls (control set as 1 = 100%); conditions: 10XCmax; DMSO treated samples set as 1
In short: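 Abs 340 nm (I/V) or 600 nm (II), 1-min reads × 6 min; 550 nm (III, IV), 10-s reads × 2 min. RCC I = rotenone-free minus rotenone rate. DMSO control = 1.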

[3] = molecular target: T1, RCC II (Rattus norvegicus, UniProt P21913+Q641Z9+Q6PCT8+Q920L2); experiment: RCC II activity in submitochondrial particles; type: biochemical; parameters: key: activity relative to DMSO-treated controls (control set as 1 = 100%); conditions: DMSO treated samples set as 1
T1 construct: Submitochondrial particles were prepared by subjecting the intact mitochondria to three successive freeze–thaw cycles; from tissue; host or cells: rat liver mitochondria, used as submitochondrial particles
T1 sequence (Q920L2 35-656): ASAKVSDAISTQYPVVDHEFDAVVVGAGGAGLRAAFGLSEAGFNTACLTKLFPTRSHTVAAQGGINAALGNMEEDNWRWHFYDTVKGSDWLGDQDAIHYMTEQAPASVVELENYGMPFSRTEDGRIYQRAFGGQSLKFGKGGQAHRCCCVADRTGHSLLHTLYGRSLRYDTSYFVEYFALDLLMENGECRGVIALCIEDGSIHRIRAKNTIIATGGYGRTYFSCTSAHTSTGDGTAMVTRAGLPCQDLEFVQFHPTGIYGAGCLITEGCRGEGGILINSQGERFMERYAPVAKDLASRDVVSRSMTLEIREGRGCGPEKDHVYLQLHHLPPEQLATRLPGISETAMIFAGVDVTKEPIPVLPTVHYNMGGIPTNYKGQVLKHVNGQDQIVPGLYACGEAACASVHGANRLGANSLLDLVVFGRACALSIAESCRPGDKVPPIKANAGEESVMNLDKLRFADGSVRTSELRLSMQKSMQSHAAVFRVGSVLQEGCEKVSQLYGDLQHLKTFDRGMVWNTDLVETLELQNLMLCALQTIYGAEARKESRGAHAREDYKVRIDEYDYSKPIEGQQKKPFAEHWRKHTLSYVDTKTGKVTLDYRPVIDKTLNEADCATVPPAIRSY
T1 sequence (P21913 31-282): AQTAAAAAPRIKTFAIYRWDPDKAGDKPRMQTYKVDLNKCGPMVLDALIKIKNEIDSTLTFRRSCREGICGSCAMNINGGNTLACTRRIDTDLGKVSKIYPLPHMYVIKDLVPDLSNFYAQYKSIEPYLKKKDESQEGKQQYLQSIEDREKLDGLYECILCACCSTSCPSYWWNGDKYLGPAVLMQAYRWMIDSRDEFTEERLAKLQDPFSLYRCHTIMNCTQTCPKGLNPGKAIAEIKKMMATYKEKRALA
T1 sequence (Q641Z9 1-169): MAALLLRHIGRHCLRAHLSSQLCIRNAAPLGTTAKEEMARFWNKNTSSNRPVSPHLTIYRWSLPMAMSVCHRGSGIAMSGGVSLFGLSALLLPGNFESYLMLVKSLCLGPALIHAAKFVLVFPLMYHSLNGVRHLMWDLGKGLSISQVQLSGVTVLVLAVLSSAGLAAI
T1 sequence (Q6PCT8 57-159): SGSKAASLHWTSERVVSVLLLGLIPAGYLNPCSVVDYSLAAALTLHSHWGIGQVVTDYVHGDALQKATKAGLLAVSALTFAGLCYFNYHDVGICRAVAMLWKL
In short: (§1)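 Kinase inhibitors were preincubated 15 min with submitochondrial particles (1 mg/ml) before complex activities were measured. RCC I was the rotenone-sensitive portion (activity without minus with rotenone). RCC I/V was read at 340 nm and RCC II at 600 nm every 1 min for 6 min. RCC III and IV were read at 550 nm every 10 s for 2 min. Activities are normalized to DMSO controls set as 1.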

[4] = tested on: RCC III; experiment: RCC III activity in submitochondrial particles; type: biochemical, rat; parameters: key to RCC III at 100XCmax: activity relative to DMSO-treated controls (control set as 1 = 100%); conditions: 100XCmax
In short: as §1

[5] = tested on: RCC IV; experiment: RCC IV activity in submitochondrial particles; type: biochemical, rat; parameters: key to RCC IV at 50XCmax / RCC IV at 100XCmax: activity relative to DMSO-treated controls (control set as 1 = 100%); conditions: 50XCmax; DMSO treated samples set as 1; in %
In short: as §1

[6] = tested on: RCC V; experiment: RCC V activity in submitochondrial particles; type: biochemical, rat; conditions: DMSO treated samples set as 1; for RCC V at 5XCmax: key: 0 indicates that the drug had no effects (negative)
In short: as §1

[7] = tested on: isolated rat liver mitochondria; experiment: Mitochondrial inner membrane potential (MMP), Rhodamine 123; type: biochemical; conditions: difference in signal between KI and DMSO treated samples at the end of experiments
From the text: Fig. 3 KI effects on mitochondrial inner membrane potential (MMP). […] In a, c, data are means and standard derivations from three separate experiments. *p < 0.05 as compared to DMSO-treated samples at the end of experiments. In b, data are means of two independent experiments

[8] = tested on: isolated rat liver mitochondria; experiment: Mitochondrial swelling (absorbance at 535 nm); type: biochemical; conditions: difference in signal between KI and DMSO treated samples at the end of experiments; for Swelling 5XCmax: key: 0 indicates that the drug had no effects (negative)
[9] = read-out: Cmax at µM; human therapeutic maximal blood concentration; ref product labeling; cited from earlier work
[10] = cited from earlier work

O=C(c1ccc(F)c(F)c1Nc1ccc(I)cc1F)N1CC(O)([C@@H]2CCCCN2)C1 [Cobimetinib]
State 3 respiration driven by glutamate/malate at 1XCmax ([1]; 1XCmax): 0
State 3 respiration driven by succinate at 1XCmax ([1]; 1XCmax): 0
State 4 respiration driven by glutamate/malate at 1XCmax ([1]; 1XCmax): 0
State 4 respiration driven by succinate at 1XCmax ([1]; 1XCmax): 0
State 3 respiration driven by glutamate/malate at 2.5XCmax ([1]; 2.5XCmax): 0
State 3 respiration driven by succinate at 2.5XCmax ([1]; 2.5XCmax): 0
State 4 respiration driven by glutamate/malate at 2.5XCmax ([1]; 2.5XCmax): 0
State 4 respiration driven by succinate at 2.5XCmax ([1]; 2.5XCmax): 0
State 3 respiration driven by glutamate/malate at 5XCmax ([1]; 5XCmax): 0
State 3 respiration driven by succinate at 5XCmax ([1]; 5XCmax): 0
State 4 respiration driven by glutamate/malate at 5XCmax ([1]; 5XCmax): 0
State 4 respiration driven by succinate at 5XCmax ([1]; 5XCmax): 0
State 3 respiration driven by glutamate/malate at 10XCmax ([1]; 10XCmax): 0
State 3 respiration driven by succinate at 10XCmax ([1]; 10XCmax): 0
State 4 respiration driven by glutamate/malate at 10XCmax ([1]; 10XCmax): 0
State 4 respiration driven by succinate at 10XCmax ([1]; 10XCmax): 0
State 3 respiration driven by glutamate/malate at 20XCmax ([1]; 20XCmax): 0
State 3 respiration driven by succinate at 20XCmax ([1]; 20XCmax): 0
State 4 respiration driven by glutamate/malate at 20XCmax ([1]; 20XCmax): 0
State 4 respiration driven by succinate at 20XCmax ([1]; 20XCmax): 0
State 3 respiration driven by glutamate/malate at 30XCmax ([1]; 30XCmax): 0
State 3 respiration driven by succinate at 30XCmax ([1]; 30XCmax): 0
State 4 respiration driven by glutamate/malate at 30XCmax ([1]; 30XCmax): 0
State 4 respiration driven by succinate at 30XCmax ([1]; 30XCmax): 0
State 3 respiration driven by glutamate/malate at 50XCmax ([1]; 50XCmax): 0
State 3 respiration driven by succinate at 50XCmax ([1]; 50XCmax): 0
State 4 respiration driven by glutamate/malate at 50XCmax ([1]; 50XCmax): 0
State 4 respiration driven by succinate at 50XCmax ([1]; 50XCmax): 0
State 3 respiration driven by glutamate/malate at 100XCmax ([1]; 100XCmax): 0
State 3 respiration driven by succinate at 100XCmax ([1]; 100XCmax): 0
State 4 respiration driven by glutamate/malate at 100XCmax ([1]; 100XCmax): 0
State 4 respiration driven by succinate at 100XCmax ([1]; 100XCmax): 0
RCC I at 10XCmax [2]: 0
RCC II at 1.0XCmax ([3]; 1.0XCmax): 0
RCC II at 2.5XCmax ([3]; 2.5XCmax): 0
RCC II at 5XCmax ([3]; 5XCmax): 0
RCC II at 10XCmax ([3]; 10XCmax): 0
RCC II at 20XCmax ([3]; 20XCmax): 0
RCC II at 30XCmax ([3]; 30XCmax): 0
RCC II at 50XCmax ([3]; 50XCmax): 0
RCC II at 100XCmax ([3]; 100XCmax): 0
RCC III at 100XCmax [4]: 0
RCC IV at 50XCmax [5]: 0
RCC V at 5XCmax ([6]; 5XCmax): 0
RCC V at 50XCmax ([6]; 50XCmax): 0
MMP measured by Rhodamine 123 at 1XCmax ([7]; 1XCmax): 0
MMP measured by Rhodamine 123 at 2.5XCmax ([7]; 2.5XCmax): 0
MMP measured by Rhodamine 123 at 5XCmax ([7]; 5XCmax): 0
MMP measured by Rhodamine 123 at 10XCmax ([7]; 10XCmax): 0
MMP measured by Rhodamine 123 at 20XCmax ([7]; 20XCmax): 0
MMP measured by Rhodamine 123 at 30XCmax ([7]; 30XCmax): 0
MMP measured by Rhodamine 123 at 50XCmax ([7]; 50XCmax): 0
MMP measured by Rhodamine 123 at 100XCmax ([7]; 100XCmax): 0
Swelling 1XCmax ([8]; 1XCmax): 0
Swelling 2.5XCmax ([8]; 2.5XCmax): 0
Swelling 5XCmax ([8]; 5XCmax): 0
Swelling 10XCmax ([8]; 10XCmax): 0
Swelling 20XCmax ([8]; 20XCmax): 0
Swelling 30XCmax ([8]; 30XCmax): 0
Swelling 50XCmax ([8]; 50XCmax): 0
Swelling 100XCmax ([8]; 100XCmax): 0
Cmax [9]: 0.51 µM
DILI potential (based on labeling) ([10]; 1 DILI positive, 0 negative according to labeling, ref product labeling): 1
Labeling for DILI ([10]; BBW: black box warning, W&P: Warnings and Precautions, ref product labeling): W&P: ALT↑
labeling for DILI ([10]; W&P warnings and precautions, BBW black box warnings, ref FDA product labeling): W&P: ALT↑/monitoring
DILI potential (based on labeling) ([10]; ref FDA product labeling): 1
